“Also recorded” adds a separate entry of the source. Read-outs that look alike come from different tables or passages of the source. Square brackets hold non-standard residues; d marks the D form. Peptide text beside a SMILES is read from it. * marks the point of attachment. dPhe(4-Cl) = N[C@H](Cc1ccc(Cl)cc1)C(=O)O; d2Nal = N[C@H](Cc1ccc2ccccc2c1)C(=O)O; d(hCit) = NC(=O)NCCCC[C@@H](N)C(=O)O; Lys(iPr) = CC(C)NCCCC[C@H](N)C(=O)O; dCit = NC(=O)NCCC[C@@H](N)C(=O)O; tBuAla = CC(C)(C)C[C@H](N)C(=O)O; d3Pal = N[C@H](Cc1cccnc1)C(=O)O; pGlu = O=C1CC[C@@H](C(=O)O)N1; Nicotinoyl = O=C(c1cccnc1)*
T1: LH-RH receptors (Rattus norvegicus, UniProt P30969)
T1 sequence (P30969 1-327): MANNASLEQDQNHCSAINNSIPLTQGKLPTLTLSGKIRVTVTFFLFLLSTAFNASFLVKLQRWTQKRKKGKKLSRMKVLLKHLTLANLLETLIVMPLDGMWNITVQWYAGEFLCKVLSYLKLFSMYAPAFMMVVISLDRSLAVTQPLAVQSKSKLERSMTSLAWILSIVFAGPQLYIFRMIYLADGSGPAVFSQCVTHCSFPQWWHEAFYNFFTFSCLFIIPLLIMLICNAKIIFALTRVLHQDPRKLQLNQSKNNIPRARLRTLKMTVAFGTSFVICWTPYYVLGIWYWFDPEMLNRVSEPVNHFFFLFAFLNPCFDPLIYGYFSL


Assays:
[1] = target: T1, LH-RH receptors; test: biochemical
[2] = target: T1, LH-RH receptors
[3] = target: T1, LH-RH receptors; test: Stimulation of testosterone secretion in adult male rats after subcutaneous injection (agonist activity in vivo); set-up: exert an agonist activity upon the LH-RH receptors in vivo; from tissue; host or cells: whole animal, adult male Sprague-Dawley rats; species or system Sprague-Dawley rats; settings: for Total plasma testosterone: Table 2, 10 ng/kg subcutaneous in PBS, blood two hours later, male Sprague-Dawley rats, vehicle 2.7 ± 0.3; for agonistic potency in words: comment on Tables 2 and 3
Procedure: The peptides according to the general formula (IIa) exert an agonist activity upon the LH-RH receptors in vivo, resulting in the stimulation of LH secretion by the pituitary, which, in males, stimulates the secretion of testosterone by the testis.
Two hours later, blood samples were drawn for total plasma testosterone determination by direct radioimmunoassay (Immunotech).
At this intermediate dose of 10 ng/kg, several examples with Npg^7 or Ada^7 in place of Leu^7 according to the invention were screened for agonistic activity (Tables 2 and 3). When available from Bachem (France) or Sigma (France), the corresponding standard agonist with Leu^7 was tested for comparison.

[4] = target: LH-RH receptors (membrane fractions of pituitaries from female Sprague Dawley rats) (rat (female Sprague Dawley)) (UniProt P30969); test: competition with [125I]-buserelin, rat pituitary membranes; Ki by Cheng-Prusoff

Row | Ki [1] | Total plasma testosterone [3] | pKi [4] | Molecule | also measured
1 | 0.692 nM |  |  | CC(=O)N[C@H](Cc1ccc2ccccc2c1)C(=O)N[C@H](Cc1ccc(Cl)cc1)C(=O)N[C@H](Cc1cccnc1)C(=O)N[C@@H](CO)C(=O)N[C@@H](CCCCNC(=O)c1cccnc1)C(=O)N[C@H](CCCCNC(=O)c1cccnc1)C(=O)N[C@@H](CC(C)C)C(=O)N[C@@H](CCCCNC(C)C)C(=O)N1CCC[C@H]1C(=O)N[C@H](C)C(N)=O [Antide, reference compound] (Ac-[d2Nal][dPhe(4-Cl)][d3Pal]SK(Nicotinoyl)[dK](Nicotinoyl)L[Lys(iPr)]P[dA]-NH2) | % of inhibition of ovulation ([2]; 0.5 μg/rat s.c.): 20%; % of inhibition of ovulation ([2]; 1 μg/rat s.c.): 69%; % of inhibition of ovulation ([2]; 2.5 μg/rat s.c.): 67%; % of inhibition of ovulation ([2]; 5 μg/rat s.c.): 100%; % of inhibition of ovulation ([2]; 10 μg/rat s.c.): 100%
2 | 0.269 nM | 16.7 ± 1.9 nmol/L |  | C[C@@H](NC(=O)[C@H](Cc1ccc(O)cc1)NC(=O)[C@H](CO)NC(=O)[C@H](Cc1c[nH]c2ccccc12)NC(=O)[C@H](Cc1c[nH]cn1)NC(=O)[C@@H]1CCC(=O)N1)C(=O)N[C@@H](CC(C)(C)C)C(=O)N[C@@H](CCCNC(=N)N)C(=O)N1CCC[C@H]1C(=O)NCC(N)=O [Example 3, pGlu-His-Trp-Ser-Tyr-D-Ala-Npg-Arg-Pro-Gly-NH2] ([pGlu]HWSY[dA][tBuAla]RPG-NH2) | 
3 | 0.0977 nM | 33.8 ± 5.8 nmol/L |  | CCNC(=O)[C@@H]1CCCN1C(=O)[C@H](CCCNC(=N)N)NC(=O)[C@H](CC(C)(C)C)NC(=O)[C@@H](C)NC(=O)[C@H](Cc1ccc(O)cc1)NC(=O)[C@H](CO)NC(=O)[C@H](Cc1c[nH]c2ccccc12)NC(=O)[C@H](Cc1c[nH]cn1)NC(=O)[C@@H]1CCC(=O)N1 [Example 4, pGlu-His-Trp-Ser-Tyr-D-Ala-Npg-Arg-Pro-NEt] | 
4 | 0.468 nM | 48.6 ± 4.3 nmol/L |  | CCNC(=O)[C@@H]1CCCN1C(=O)[C@H](CCCNC(=N)N)NC(=O)[C@H](CC(C)(C)C)NC(=O)[C@@H](CC(C)C)NC(=O)[C@H](Cc1ccc(O)cc1)NC(=O)[C@H](CO)NC(=O)[C@H](Cc1c[nH]c2ccccc12)NC(=O)[C@H](Cc1c[nH]cn1)NC(=O)[C@@H]1CCC(=O)N1 [Example 6, pGlu-His-Trp-Ser-Tyr-D-Leu-Npg-Arg-Pro-NEt] | activity in stimulating testosterone secretion relative to the Leu^7 counterpart ([3]; 10 ng/kg s.c.): a little more than twice as active as leuprorelin; agonistic potency in words ([3]; 10 ng/kg s.c.): Npg^7 led to more potent agonists than Ada^7; also recorded: more potent LH-RH agonists than current therapeutic LH-RH analogues
5 | 1.86 nM |  |  | CCNC(=O)[C@@H]1CCCN1C(=O)[C@H](CCCNC(=N)N)NC(=O)[C@H](CC(C)(C)C)NC(=O)[C@@H](CC(C)(C)C)NC(=O)[C@H](Cc1ccc(O)cc1)NC(=O)[C@H](CO)NC(=O)[C@H](Cc1c[nH]c2ccccc12)NC(=O)[C@H](Cc1c[nH]cn1)NC(=O)[C@@H]1CCC(=O)N1 [Example 8, pGlu-His-Trp-Ser-Tyr-D-Npg-Npg-Arg-Pro-NEt] | 
6 | 2.34 nM | 30.9 ± 3.6 nmol/L |  | CC(C)(C)C[C@H](NC(=O)[C@@H](Cc1ccccc1)NC(=O)[C@H](Cc1ccc(O)cc1)NC(=O)[C@H](CO)NC(=O)[C@H](Cc1c[nH]c2ccccc12)NC(=O)[C@H](Cc1c[nH]cn1)NC(=O)[C@@H]1CCC(=O)N1)C(=O)N[C@@H](CCCNC(=N)N)C(=O)N1CCC[C@H]1C(=O)NCC(N)=O [Example 9, pGlu-His-Trp-Ser-Tyr-D-Phe-Npg-Arg-Pro-Gly-NH2] ([pGlu]HWSY[dF][tBuAla]RPG-NH2) | agonistic potency in words ([3]; 10 ng/kg s.c.): range of potency similar to that of leuprorelin or tryptorelin
7 | 0.229 nM | 23.5 ± 4.0 nmol/L |  | CCNC(=O)[C@@H]1CCCN1C(=O)[C@H](CCCNC(=N)N)NC(=O)[C@H](CC(C)(C)C)NC(=O)[C@@H](Cc1ccccc1)NC(=O)[C@H](Cc1ccc(O)cc1)NC(=O)[C@H](CO)NC(=O)[C@H](Cc1c[nH]c2ccccc12)NC(=O)[C@H](Cc1c[nH]cn1)NC(=O)[C@@H]1CCC(=O)N1 [Example 10, pGlu-His-Trp-Ser-Tyr-D-Phe-Npg-Arg-Pro-NEt] | 
8 | 0.162 nM | 20.5 ± 5.2 nmol/L |  | CCNC(=O)[C@@H]1CCCN1C(=O)[C@H](CCCNC(=N)N)NC(=O)[C@H](CC(C)(C)C)NC(=O)[C@@H](Cc1c[nH]c2ccccc12)NC(=O)[C@H](Cc1ccc(O)cc1)NC(=O)[C@H](CO)NC(=O)[C@H](Cc1c[nH]c2ccccc12)NC(=O)[C@H](Cc1c[nH]cn1)NC(=O)[C@@H]1CCC(=O)N1 [Example 12, pGlu-His-Trp-Ser-Tyr-D-Trp-Npg-Arg-Pro-NEt] | 
9 | 1.07 nM | 22.9 ± 4.2 nmol/L |  | CC(C)(C)C[C@H](NC(=O)[C@@H](Cc1ccc2ccccc2c1)NC(=O)[C@H](Cc1ccc(O)cc1)NC(=O)[C@H](CO)NC(=O)[C@H](Cc1c[nH]c2ccccc12)NC(=O)[C@H](Cc1c[nH]cn1)NC(=O)[C@@H]1CCC(=O)N1)C(=O)N[C@@H](CCCNC(=N)N)C(=O)N1CCC[C@H]1C(=O)NCC(N)=O [Example 13, pGlu-His-Trp-Ser-Tyr-D-Nal-Npg-Arg-Pro-Gly-NH2] ([pGlu]HWSY[d2Nal][tBuAla]RPG-NH2) | agonistic potency in words ([3]; 10 ng/kg s.c.): range of potency similar to that of leuprorelin or tryptorelin
10 | 0.316 nM |  |  | CCNC(=O)[C@@H]1CCCN1C(=O)[C@H](CCCNC(=N)N)NC(=O)[C@H](CC(C)(C)C)NC(=O)[C@@H](Cc1ccc2ccccc2c1)NC(=O)[C@H](Cc1ccc(O)cc1)NC(=O)[C@H](CO)NC(=O)[C@H](Cc1c[nH]c2ccccc12)NC(=O)[C@H](Cc1c[nH]cn1)NC(=O)[C@@H]1CCC(=O)N1 [Example 14, pGlu-His-Trp-Ser-Tyr-D-Nal-Npg-Arg-Pro-NEt] | 
11 | 0.589 nM |  |  | CC(=O)N[C@H](Cc1ccc2ccccc2c1)C(=O)N[C@H](Cc1ccc(Cl)cc1)C(=O)N[C@H](Cc1cccnc1)C(=O)N[C@@H](CO)C(=O)N[C@@H](CCCCNC(=O)c1cccnc1)C(=O)N[C@H](CCCCNC(=O)c1cccnc1)C(=O)N[C@@H](CC(C)(C)C)C(=O)N[C@@H](CCCCNC(C)C)C(=O)N1CCC[C@H]1C(=O)N[C@H](C)C(N)=O [Example 15, AcD-Nal-D-pClPhe-D-Pal-Ser-NicLys-D-NicLys-Npg-IprLys-Pro-D-Ala-NH2] (Ac-[d2Nal][dPhe(4-Cl)][d3Pal]SK(Nicotinoyl)[dK](Nicotinoyl)[tBuAla][Lys(iPr)]P[dA]-NH2) | % of inhibition of ovulation ([2]; 0.1 μg/rat s.c.): 0%; % of inhibition of ovulation ([2]; 0.25 μg/rat s.c.): 60%; % of inhibition of ovulation ([2]; 0.5 μg/rat s.c.): 100%; % of inhibition of ovulation ([2]; 1 μg/rat s.c.): 80%
12 |  |  | 9.5 -log Ki | pGlu-His-Trp-Ser-Tyr-D-Nal-Npg-Arg-Pro-NEt (peptide) | 
13 |  |  | 8.73 -log Ki | pGlu-His-Trp-Ser-Tyr-D-Npg-Npg-Arg-Pro-NEt (peptide) | 
14 |  |  | 9.64 -log Ki | pGlu-His-Trp-Ser-Tyr-D-Phe-Npg-Arg-Pro-NEt (peptide) | 
15 |  |  | 9.79 -log Ki | pGlu-His-Trp-Ser-Tyr-D-Trp-Npg-Arg-Pro-NEt (peptide) | 
16 |  |  | 8.63 -log Ki | XHWSYXXRPG (pGlu at 1; D-Phe at 6; Npg at 7; C-terminal Gly-NH2 (amide)) [pGlu-His-Trp-Ser-Tyr-D-Phe-Npg-Arg-Pro-Gly-NH2] | 
17 |  |  | 8.2 -log Ki | XHWSYXXRPG (pGlu at 1; D-Npg at 6; Npg at 7; C-terminal Gly-NH2 (amide)) [pGlu-His-Trp-Ser-Tyr-D-Npg-Npg-Arg-Pro-Gly-NH2] | 
18 |  |  | 8.97 -log Ki | XHWSYXXRPG (pGlu at 1; D-Nal (3-(2-naphtyl)alanine) at 6; Npg at 7; C-terminal Gly-NH2 (amide)) [pGlu-His-Trp-Ser-Tyr-D-Nal-Npg-Arg-Pro-Gly-NH2] | 
19 |  |  | 9.57 -log Ki | XHWSYXXRPG (pGlu at 1; D-Ala at 6; Npg at 7; C-terminal Gly-NH2 (amide)) [pGlu-His-Trp-Ser-Tyr-D-Ala-Npg-Arg-Pro-Gly-NH2] | 
20 |  |  | 10.1 -log Ki | Ac-X[dPhe(4-Cl)][d3Pal]SY[d(hCit)][tBuAla]RP[dA]-NH2 (not fully specified (residue 1); printed as AcD-Nal-D-pClPhe-D-Pal-Ser-Tyr-D-HCit-Npg-Arg-Pro-D-Ala-NH2; also: trifluoroacetate salt) [AcD-Nal-D-pClPhe-D-Pal-Ser-Tyr-D-HCit-Npg-Arg-Pro-D-Ala-NH2] | 
21 |  |  | 10.2 -log Ki | Ac-X[dPhe(4-Cl)][d3Pal]SY[dCit][tBuAla]RP[dA]-NH2 (not fully specified (residue 1); printed as AcD-Nal-D-pClPhe-D-Pal-Ser-Tyr-D-Cit-Npg-Arg-Pro-D-Ala-NH2; also: trifluoroacetate salt) [AcD-Nal-D-pClPhe-D-Pal-Ser-Tyr-D-Cit-Npg-Arg-Pro-D-Ala-NH2] | 

Row | Molecule | Ki [1] | Total plasma testosterone [3] | pKi [4] | also measured
22 | CCNC(=O)[C@@H]1CCCN1C(=O)[C@H](CCCNC(=N)N)NC(=O)[C@H](CC(C)C)NC(=O)[C@@H](COC(C)(C)C)NC(=O)[C@H](Cc1ccc(O)cc1)NC(=O)[C@H](CO)NC(=O)[C@H](Cc1c[nH]c2ccccc12)NC(=O)[C@H](Cc1cnc[nH]1)NC(=O)[C@@H]1CCC(=O)N1 [Buserelin, reference compound] | 0.447 nM |  |  | 
